Source: ChEMBL document CHEMBL1201862, “PubChem BioAssay data set” (2004)
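Following 48 hours of exposure in 96-well plates, responses at five concentrations were used to interpolate endpoints linearly. GI50 marks 50% less growth.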 Calls of active or inactive are those of the source. Cut-off read from the data, not from the text of the source: active = GI50 up to about 1.1 µM and inactive = higher.

Experiments:
Experiment in all cases: NCI-60 cell line screen, 48 h
NCI-H522 = tested on: NCI-H522
NCI-H460 = tested on: NCI-H460
IGROV-1 = tested on: IGROV-1
SNB-19 = tested on: SNB-19
T47D = tested on: T47D
OVCAR-4 = tested on: OVCAR-4
SK-MEL-28 = tested on: SK-MEL-28
UACC-62 = tested on: UACC-62
CCRF-CEM = tested on: CCRF-CEM
DU-145 = tested on: DU-145
UACC-257 = tested on: UACC-257
A549 = tested on: A549
MOLT-4 = tested on: MOLT-4
ACHN = tested on: ACHN
Hs-578T = tested on: Hs-578T
SK-MEL-5 = tested on: SK-MEL-5
SF-295 = tested on: SF-295
CAKI-1 = tested on: CAKI-1
NCI-H226 = tested on: NCI-H226

Measured: GI50

O=c1ccn(Cc2ccccc2CCl)c(=O)[nH]1
inactive: NCI-H522 20.4 µM | NCI-H460 > 100 µM | IGROV-1 24.3 µM | SNB-19 33.3 µM | T47D 43.9 µM | OVCAR-4 69.7 µM | SK-MEL-28 33.8 µM | UACC-62 26.9 µM | CCRF-CEM 30.7 µM | DU-145 32.4 µM | UACC-257 25.8 µM | A549 47.8 µM | MOLT-4 40.6 µM | ACHN 26.9 µM | Hs-578T 29.2 µM | SK-MEL-5 3 µM | SF-295 23.3 µM | CAKI-1 25 µM

Nc1nc2c(ncn2Cc2ccccc2CO)c(=O)[nH]1
inactive: NCI-H522 > 100 µM | NCI-H460 > 100 µM | IGROV-1 > 100 µM | SNB-19 > 100 µM | T47D > 100 µM | OVCAR-4 > 100 µM | SK-MEL-28 > 100 µM | UACC-62 > 100 µM | CCRF-CEM > 100 µM | NCI-H226 > 100 µM | DU-145 > 100 µM | UACC-257 > 100 µM | A549 > 100 µM | MOLT-4 > 100 µM | ACHN > 100 µM | Hs-578T > 100 µM | SK-MEL-5 > 100 µM | SF-295 > 100 µM | CAKI-1 > 100 µM

c1ccc(C(NC2CCCCC2NCCNC2CCCCC2NC(c2ccccc2)(c2ccccc2)c2ccccc2)(c2ccccc2)c2ccccc2)cc1 (stereo not drawn)
inactive: NCI-H522 14.6 µM | NCI-H460 26.8 µM | IGROV-1 26.8 µM | SNB-19 74.6 µM | T47D 11.7 µM | OVCAR-4 26.6 µM | SK-MEL-28 > 100 µM | UACC-62 26.2 µM | CCRF-CEM 42.4 µM | DU-145 96.6 µM | UACC-257 > 100 µM | A549 64.1 µM | MOLT-4 47.8 µM | ACHN 90.2 µM | Hs-578T 11.7 µM | SK-MEL-5 39.5 µM | SF-295 > 100 µM | CAKI-1 64.4 µM

CC1(C)OC[C@@H]([C@@]2(COC(c3ccccc3)(c3ccccc3)c3ccccc3)CC=CC(=O)O2)O1
inactive: NCI-H522 18.4 µM | NCI-H460 32.1 µM | SNB-19 58.3 µM | T47D 48.5 µM | OVCAR-4 28.2 µM | SK-MEL-28 32 µM | UACC-62 28 µM | CCRF-CEM 33.3 µM | NCI-H226 32.7 µM | DU-145 56.2 µM | UACC-257 43.5 µM | A549 40.7 µM | MOLT-4 28.3 µM | ACHN 30.5 µM | Hs-578T 46.9 µM | SF-295 36.5 µM | CAKI-1 30.6 µM

COc1ccc(-c2cc(-c3ccc(Nc4ccnc5cc(Cl)ccc45)cc3)[nH]c(=O)c2C#N)cc1
inactive: NCI-H522 > 100 µM | NCI-H460 > 100 µM | IGROV-1 > 100 µM | SNB-19 77.4 µM | T47D > 100 µM | OVCAR-4 > 100 µM | SK-MEL-28 > 100 µM | UACC-62 > 100 µM | NCI-H226 > 100 µM | DU-145 > 100 µM | A549 > 100 µM | MOLT-4 > 100 µM | ACHN > 100 µM | Hs-578T > 100 µM | SF-295 > 100 µM | CAKI-1 > 100 µM

O=c1c2ccc(S(=O)(=O)c3ccc4c(=O)n5c6ccccc6nc5c5cccc3c45)c3cccc(c32)c2nc3ccccc3n12
inactive: NCI-H522 27.7 µM | NCI-H460 > 100 µM | IGROV-1 1.98 µM | SNB-19 16.6 µM | T47D 36.6 µM | SK-MEL-28 > 100 µM | UACC-62 45.5 µM | NCI-H226 41.6 µM | DU-145 59.6 µM | UACC-257 > 100 µM | A549 > 100 µM | ACHN 15.2 µM | SK-MEL-5 > 100 µM | SF-295 15.3 µM | CAKI-1 > 100 µM
